Test results published in publication PMC6359039, “Pharmacokinetics, Tissue Distribution, Plasma Protein Binding Studies of 10-Dehydroxyl-12-Demethoxy-Conophylline, a Novel Anti-Tumor Candidate, in Rats” (Molecules, 2019).
Entries after “also recorded” stand apart in the source; their conditions may differ. Where two headings read alike, the source gives them in different places.

Assays:
[1] = Plasma pharmacokinetics in rats after i.v. and i.g. dosing (UPLC-FLR); type: in vivo, Sprague Dawley rats; parameters: CL: unit not given here; conditions: rat; for MRT: Sprague-Dawley; for pharmacokinetic model fit: plasma concentration–time data, DAS 2.0
Experimental: Sprague Dawley rats (half male and female) with a body mass 180–220 g were provided by the Laboratory Animal Center of Medical University of Anhui (Hefei, China), Certificate number: SCXK(wan) 2015-002. Animals were housed under controlled conditions (temperature 22 ± 2 °C, humidity 50% ± 5%, 12 h dark/light cycle) with standardized diet and acclimatized for 7 days, prior to the experiments. All protocols and care of the rats were performed in strict compliance with the Guidelines for the Use of Laboratory Animals (National Research Council) and authorized by the Animal Care and Use Committee of Anhui University of Chinese Medicine.
(§1) Chromatographic separation was performed using a UPLC system (Waters ACQUITY-CLASS. US) with an analytical column Kinetex (C18, 1.7 μm, 2.1 mm × 100 mm; Phenomenex; California; CA, USA) at 25 °C. Water and methanol (75:25) were used as the isocratic elution, running at a flow rate of 0.2 mL/min. The detector was used with fluorescence (FLR) detection with a fluorescence excitation wavelength of 330 nm and a fluorescence emission wavelength of 439 nm.
The rat intravenous doses were determined as 4, 8, and 12 mg/kg, and the intragastric administration dose was 20 mg/kg. These were selected to investigate whether the pharmacokinetics of the drug was linear over the range of doses used. In all, 18 (SD) rats (half male and female) were randomly divided into three groups, namely, high-, medium- and low-dose groups. The rats fasted 12 h be before the administration of 10-dehydroxyl-12-demethoxy-conophylline but with free access to water. 10-dehydroxyl-12-demethoxy-conophylline was dissolved in normal saline and added with 5% ethanol. Amounts of 4, 8, and 12 mg/kg (0.5 mL/100 g) were injected into the tail vein of the rat, and 0.3 mL of blood was taken from the eyelid before administration (0 min) and 2, 5, 15, 30, 60, 90, 120, 180, 240, and 300 min after intravenous administration. Another 6 rats (half male and female) were administered an intragastrical (i.g.) dose of 20 mg/kg. Blood samples (0.3 mL) were collected by retro-orbital bleeding into heparinized 1.5mL tubes before administration (0 min) and 15, 30, 60, 90, 120, 240, 480, and 600 min after intragastric administration. Immediately after collection, the blood samples were centrifuged at 3500 rpm for 10 min to obtain plasma, and originating supernatants were also stored at −70 °C until analysis.
Plasma samples (90 μL) were spiked with 10 μL internal standard (100 ng/mL) and extracted with 300 μL of methanol by vortexing for 10 min. The plasma and aqueous phases were separated by centrifugation at 14,000 rpm for 10 min. The supernatants were transferred to another tube and evaporated to dryness at 50 °C. The residue was dissolved in 100 μL methanol and vortexed. A 2 μL aliquot of the solution was injected into the UPLC system for analysis.
The pharmacokinetic parameters were calculated using the pharmacokinetic software DAS 2.0 (Chinese Pharmacological Association, Beijing, China) by non-compartmental and compartmental analysis method. The elimination half-life (t1/2) was determined by linear regression of the terminal portion (last the points) of the plasma concentration–time curve. The area under the plasma concentration–time curve from zero to the last measurable plasma concentration point (AUC0-t) was calculated using the linear trapezoidal method. Extrapolation from time zero to infinity (AUC0-∞) was calculated as follows:AUC0-∞ = AUC0-t + Ct/ke,(2) where Ct is the last measurable plasma concentration and ke is the terminal elimination rate constant. […]

[2] = Tissue distribution in rats after a single i.v. dose; type: in vivo, Sprague Dawley rats; conditions: rat, single i.v. dose 8 mg/kg
Experimental: as §1
For the tissue concentration study of 10-dehydroxyl-12-demethoxy-conophylline, 18 (SD) rats (half male and female) were randomly divided into three groups. The rats were administered intravenously at a dose of 8 mg/kg of 10-dehydroxyl-12-demethoxy-conophylline, and the rats were euthanized at 5, 20, and 45 min after administration. Samples of their tissues and blood were carefully collected and washed with sodium phosphate buffer (pH 7.4) to remove blood. Each tissue (0.2 g) was homogenized in normal saline (1 mL). Subsequently, an amount 120 μL of the homogenate was pipetted into 480 μL of methanol and vortexed for 3 min, and then centrifuged at 14,000 rpm for 10 min. The supernatant was then centrifuged again at 14,000 rpm for 10 min and stored at −70 °C until analysis. The preparation process for analysis was the same as described above for plasma.

[3] = Plasma protein binding by equilibrium dialysis, rat plasma; type: in vitro ADME; conditions: Sprague Dawley
Experimental: (§2) Protein binding was determined in vitro by equilibrium dialysis of plasma of rats or human serum albumin. Blank dialysate, internal dialysate, and external dialysate were prepared separately. The internal dialysate was prepared by taking 0.4 mL of blank plasma and adding 100 μL of the 10-dehydroxyl-12-demethoxy-conophylline series standard solution to prepare the equivalent of 10-dehydroxyl-12-demethoxy-conophylline plasma concentrations of 0.078, 0.156, 0.312, 0.625, 1.250, 2.500, 5.000, and 20.000 μg/mL simulating biological samples. The external dialysate was prepared by taking 0.4 mL of blank dialysate and adding 100 μL of the 10-dehydroxyl-12-demethoxy-conophylline series standard solution to prepare the equivalent of 10-dehydroxyl-12-demethoxyconophylline plasma concentrations of […] simulating dialysate samples. The protein binding rate of 10-dehydroxyl-12-demethoxy-conophylline in plasma was measured using the equilibrium dialysis method in this experiment. The concentration of unbound compound (B) and bound compound to protein (A) were calculated as follows:F = (A − B)/A,(1) where F is the bounded fraction, A is the compound concentration in the plasma compartment, and B is the concentration of the compound in the phosphate buffer compartment.

[4] = Plasma protein binding by equilibrium dialysis, human plasma; type: in vitro ADME; conditions: read-out: protein binding degree (converted)
Experimental: as §2

HL-60 = test system: HL-60; parameters: method as in PMID 29772302; conditions: cited from earlier work
SMMC-7721 = test system: SMMC-7721; parameters: method as in PMID 29772302; conditions: cited from earlier work
A-549 = test system: A-549; parameters: method as in PMID 29772302; conditions: cited from earlier work
MCF-7 = test system: MCF-7; parameters: method as in PMID 29772302; conditions: cited from earlier work
SW480 = test system: SW480; parameters: method as in PMID 29772302; conditions: cited from earlier work
[5] = both sexes, Sprague Dawley, plasma, iv, 4 mg/kg i.v., mean ± SD, n = 6
[6] = both sexes, Sprague Dawley, plasma, iv, 8 mg/kg i.v., mean ± SD, n = 6
[7] = both sexes, Sprague Dawley, plasma, iv, 12 mg/kg i.v., mean ± SD, n = 6
[8] = both sexes, Sprague Dawley, plasma, po, 20 mg/kg i.g., mean ± SD, n = 6
[9] = 12 mg/kg i.v., mean ± SD, n = 6
[10] = 20 mg/kg i.g., mean ± SD, n = 6

Compound: CC[C@@]12CC(C(=O)OC)=C3Nc4cc5c(cc4[C@@]34CCN(C[C@H]3O[C@H]31)[C@@H]24)[C@@H]1C(O5)[C@@H](O)[C@@]2(CC)CC(C(=O)OC)=C3Nc4cc(OC)ccc4[C@@]34CCN1[C@@H]24 (stereo partly shown) [10-dehydroxyl-12-demethoxy-conophylline, 10-Dehydroxyl-12-demethoxy-conophylline]
- AUC(0-inf) ([1]; both sexes, Sprague Dawley, plasma, iv, 4 mg/kg i.v.): 1140 ng·h/mL
- AUC(0-t) [1, 5]: 988 ng·h/mL
- clearance [1, 5]: 41 ± 70 mL/min/kg
- AUC(0-inf) [1, 6]: 2190 ng·h/mL
- AUC(0-t) [1, 6]: 2150 ng·h/mL
- clearance [1, 6]: 39 ± 120 mL/min/kg
- AUC(0-inf) ([1]; both sexes, Sprague Dawley, plasma, iv, 12 mg/kg i.v.): 5090 ng·h/mL
- AUC(0-t) [1, 7]: 3910 ng·h/mL
- clearance [1, 7]: 41 ± 50 mL/min/kg
- bioavailability ([1]; both sexes, Sprague Dawley, plasma, oral, 20 mg/kg i.g. versus i.v., read-out: absolute oral bioavailability): 15.8%
- AUC(0-inf) [1, 8]: 1240 ng·h/mL
- AUC(0-t) [1, 8]: 867 ng·h/mL
- Tmax ([1]; both sexes, Sprague Dawley, plasma, iv, 4 mg/kg, 4 mg/kg i.v., mean ± SD, n = 6): 0.0333 h
- half-life ([1]; both sexes, Sprague Dawley, plasma, iv, 4 mg/kg, 4 mg/kg i.v., mean ± SD, n = 6, read-out: t1/2β): 1.14 ± 0.0548 h
- Tmax ([1]; both sexes, Sprague Dawley, plasma, iv, 8 mg/kg, 8 mg/kg i.v., mean ± SD, n = 6): 0.0333 h
- half-life ([1]; both sexes, Sprague Dawley, plasma, iv, 8 mg/kg, 8 mg/kg i.v., mean ± SD, n = 6, read-out: t1/2β): 1.11 ± 0.0759 h
- Tmax ([1]; both sexes, Sprague Dawley, plasma, iv, 12 mg/kg, 12 mg/kg i.v., mean ± SD, n = 6): 0.0333 h
- half-life ([1]; both sexes, Sprague Dawley, plasma, iv, 12 mg/kg, 12 mg/kg i.v., mean ± SD, n = 6, read-out: t1/2β): 1.16 ± 0.0721 h
- half-life ([1]; both sexes, Sprague Dawley, plasma, iv, 12 mg/kg, i.v. dosing at 4, 8 and 12 mg/kg, read-out: half-life t1/2α of intravenous administration): ~0.117 h
- half-life ([1]; both sexes, Sprague Dawley, plasma, iv, 12 mg/kg, i.v. dosing at 4, 8 and 12 mg/kg, read-out: t1/2β of intravenous administration): ~1.15 h
- Tmax ([1]; both sexes, Sprague Dawley, plasma, po, 20 mg/kg, 20 mg/kg i.g., mean ± SD, n = 6): ~1.5 h
- half-life ([1]; both sexes, Sprague Dawley, plasma, po, 20 mg/kg, 20 mg/kg i.g., mean ± SD, n = 6, read-out: t1/2β): 1.17 ± 0.0447 h
- MRT ([1]; both sexes, plasma, iv, 4 mg/kg i.v., mean ± SD, n = 6): 1.52 h
- MRT ([1]; both sexes, plasma, iv, 8 mg/kg i.v., mean ± SD, n = 6): 1.42 h
- MRT ([1]; both sexes, plasma, iv, 12 mg/kg i.v., mean ± SD, n = 6): 1.36 h
- MRT ([1]; both sexes, plasma, po, 20 mg/kg i.g., mean ± SD, n = 6): 4.28 h
- AUC0–∞ ([1]; 4 mg/kg i.v., mean ± SD, n = 6): 68.478 ± 8.167 µg·min/mL
- V ([1]; 4 mg/kg i.v., mean ± SD, n = 6): 2.096 ± 0.0465 L/kg
- t1/2α ([1]; 4 mg/kg i.v., mean ± SD, n = 6): 0.1164 ± 0.03832 h
- V ([1]; 8 mg/kg i.v., mean ± SD, n = 6): 1.906 ± 0.012 L/kg
- t1/2α ([1]; 8 mg/kg i.v., mean ± SD, n = 6): 0.1185 ± 0.0318 h
- AUC0–∞ [1, 9]: 305.616 ± 17.432 µg·min/mL
- V [1, 9]: 2.014 ± 0.019 L/kg
- t1/2α [1, 9]: 0.1174 ± 0.03417 h
- CL [1, 10]: 0.046 ± 0.013
- V [1, 10]: 4.881 ± 2.390 L/kg
- t1/2α [1, 10]: 0.87358 ± 0.032 h
- t1/2β of intravenous administration ([1]; i.v. dosing at 4, 8 and 12 mg/kg): about 68 min
- pharmacokinetic model fit [1]: fit to a two-room model
- pharmacokinetic model fit ([1]; listed as 10-dehydroxyl-12-demethoxyconophylline): consistent with a two-compartment pharmacokinetic model
- linear correlation between AUC0→t and dose (r) ([1]; single i.v. dose 4, 8 and 12 mg/kg): 0.9821
- concentration in the brain [2]: kept to a small amount
- tissue distribution at 5 min ([2]; 5 min): in the heart and kidney were markedly higher than in other tissues
- tissue distribution at 20 min ([2]; 20 min (equilibrium time)): the drug concentration in the lung reached the highest at this time
- tissue distribution at 45 min ([2]; 45 min (elimination period)): mainly distributed in the liver and kidney tissues
- tissue distribution, tissues with highest levels ([2]; overall, 8 mg/kg): detected in all examined tissues with the highest in kidney, liver, and lung; also recorded: the distribution in the kidney and lung is the highest
- fraction unbound at 1 µg/mL ([3]; 1.00 µg/mL, equilibrium dialysis, read-out: protein binding degree (converted)): 0.181
- fraction unbound at 2.5 µg/mL ([3]; 2.50 µg/mL, equilibrium dialysis, read-out: protein binding degree (converted)): 0.174
- fraction unbound at 5 µg/mL ([3]; 5.00 µg/mL, equilibrium dialysis, read-out: protein binding degree (converted)): 0.188
- fraction unbound ([3]; rat, three concentrations (1.00, 2.50 and 5.00 µg/mL), summary in abstract, read-out: protein binding degree): < 0.2
- fraction unbound at 1 µg/mL ([4]; 1.00 µg/mL): 0.131
- fraction unbound at 2.5 µg/mL ([4]; 2.50 µg/mL): 0.159
- fraction unbound at 5 µg/mL ([4]; 5.00 µg/mL): 0.153
- inhibitory activity on HL-60 tumor cell line (HL-60): significant inhibitory activity
- inhibitory activity on SMMC-7721 tumor cell line (SMMC-7721): significant inhibitory activity
- inhibitory activity on A-549 tumor cell line (A-549): significant inhibitory activity
- inhibitory activity on MCF-7 tumor cell line (MCF-7): significant inhibitory activity
- inhibitory activity on SW480 tumor cell line (SW480): significant inhibitory activity
